# Results published in ChEMBL document CHEMBL1671722, “Comparative in vitro activity profiles of novel bis-indole antibacterials against gram-positive and gram-negative clinical isolates” (Antimicrob Agents Chemother, 2010).
# Assays:
# Format in all cases: functional
# Haemophilus influenzae = assay: Antimicrobial activity against Haemophilus influenzae by broth microdilution method
# [1] = system: Staphylococcus epidermidis; assay: Antimicrobial activity against methicillin-resistant Staphylococcus epidermidis by broth microdilution method
# Staphylococcus aureus [2] = assay: Antimicrobial activity against methicillin-susceptible Staphylococcus aureus by broth microdilution method
# Streptococcus pneumoniae [3] = assay: Antimicrobial activity against penicillin-susceptible Streptococcus pneumoniae by broth microdilution method
# Streptococcus agalactiae = assay: Antimicrobial activity against Streptococcus agalactiae by broth microdilution method
# [4] = system: Staphylococcus epidermidis; assay: Antimicrobial activity against methicillin-susceptible Staphylococcus epidermidis by broth microdilution method
# Streptococcus pneumoniae [5] = assay: Antimicrobial activity against penicillin-intermediate Streptococcus pneumoniae by broth microdilution method
# Enterococcus faecium [6] = assay: Antimicrobial activity against vancomycin-susceptible Enterococcus faecium by broth microdilution method
# Enterococcus faecalis [7] = assay: Antimicrobial activity against vancomycin-resistant Enterococcus faecalis by broth microdilution method
# Staphylococcus aureus [8] = assay: Antimicrobial activity against methicillin-resistant Staphylococcus aureus by broth microdilution method
# Enterococcus faecium [9] = assay: Antimicrobial activity against vancomycin-resistant Enterococcus faecium by broth microdilution method
# Enterococcus faecalis [10] = assay: Antimicrobial activity against vancomycin-susceptible Enterococcus faecalis by broth microdilution method
# Streptococcus pneumoniae [11] = assay: Antimicrobial activity against penicillin-resistant Streptococcus pneumoniae by broth microdilution method
# Clostridioides difficile = assay: Antimicrobial activity against Clostridium difficile by broth microdilution method
# Proteus mirabilis = assay: Antimicrobial activity against Proteus mirabilis by broth microdilution method
# Escherichia coli = assay: Antimicrobial activity against Escherichia coli by broth microdilution method
# Serratia marcescens = assay: Antimicrobial activity against Serratia marcescens by broth microdilution method
# Pseudomonas aeruginosa = assay: Antimicrobial activity against Pseudomonas aeruginosa by broth microdilution method
# Burkholderia cepacia = assay: Antimicrobial activity against Burkholderia cepacia by broth microdilution method
# Acinetobacter baumannii [12] = assay: Antimicrobial activity against Acinetobacter baumannii by broth microdilution method
# Acinetobacter baumannii [13] = assay: Antimicrobial activity against multiple dug-resistant Acinetobacter baumannii by broth microdilution method
# Klebsiella pneumoniae [14] = assay: Antimicrobial activity against Klebsiella pneumoniae by broth microdilution method
# Klebsiella pneumoniae [15] = assay: Antimicrobial activity against ESBL-production Klebsiella pneumoniae by broth microdilution method
molecule,measurement,setting,value
C[C@H]1COc2c(N3CCN(C)CC3)c(F)cc3c(=O)c(C(=O)O)cn1c23.C[C@H]1COc2c(N3CCN(C)CC3)c(F)cc3c(=O)c(C(=O)O)cn1c23.O [LEVOFLOXACIN],MIC,Haemophilus influenzae,0.08 µg/mL
same,MIC50,Haemophilus influenzae,0.015 µg/mL
same,MIC90,Haemophilus influenzae,0.06 µg/mL
CC(=O)NC[C@H]1CN(c2ccc(N3CCOCC3)c(F)c2)C(=O)O1 [LINEZOLID],MIC,[1],1 µg/mL
same,MIC50,[1],1 µg/mL
same,MIC90,[1],2 µg/mL
same,MIC50,Staphylococcus aureus [2],2 µg/mL
same,MIC90,Staphylococcus aureus [2],4 µg/mL
same,MIC50,Streptococcus pneumoniae [3],1 µg/mL
same,MIC90,Streptococcus pneumoniae [3],2 µg/mL
same,MIC,Streptococcus agalactiae,1 µg/mL
same,MIC50,Streptococcus agalactiae,1 µg/mL
same,MIC90,Streptococcus agalactiae,2 µg/mL
same,MIC50,[4],1 µg/mL
same,MIC90,[4],2 µg/mL
same,MIC50,Streptococcus pneumoniae [5],1 µg/mL
same,MIC90,Streptococcus pneumoniae [5],1 µg/mL
same,MIC,Enterococcus faecium [6],2 µg/mL
same,MIC50,Enterococcus faecium [6],2 µg/mL
same,MIC90,Enterococcus faecium [6],4 µg/mL
same,MIC50,Enterococcus faecalis [7],1 µg/mL
same,MIC90,Enterococcus faecalis [7],1 µg/mL
same,MIC50,Staphylococcus aureus [8],2 µg/mL
same,MIC90,Staphylococcus aureus [8],4 µg/mL
same,MIC50,Enterococcus faecium [9],2 µg/mL
same,MIC90,Enterococcus faecium [9],2 µg/mL
same,MIC50,Enterococcus faecalis [10],2 µg/mL
same,MIC90,Enterococcus faecalis [10],2 µg/mL
same,MIC50,Streptococcus pneumoniae [11],1 µg/mL
same,MIC90,Streptococcus pneumoniae [11],1 µg/mL
Cc1ncc([N+](=O)[O-])n1CCO [METRONIDAZOLE],MIC50,Clostridioides difficile,0.12 µg/mL
same,MIC90,Clostridioides difficile,0.5 µg/mL
CN(C)c1cc(NC(=O)CNC(C)(C)C)c(O)c2c1C[C@H]1C[C@H]3[C@H](N(C)C)C(O)=C(C(N)=O)C(=O)[C@@]3(O)C(O)=C1C2=O [TIGECYCLINE],MIC50,Proteus mirabilis,0.5 µg/mL
same,MIC90,Proteus mirabilis,> 32 µg/mL
same,MIC,Escherichia coli,0.12 µg/mL
same,MIC50,Escherichia coli,0.12 µg/mL
same,MIC90,Escherichia coli,0.25 µg/mL
same,MIC50,Serratia marcescens,0.5 µg/mL
same,MIC90,Serratia marcescens,2 µg/mL
same,MIC50,Pseudomonas aeruginosa,0.5 µg/mL
same,MIC90,Pseudomonas aeruginosa,> 32 µg/mL
same,MIC50,Burkholderia cepacia,> 8 µg/mL
same,MIC90,Burkholderia cepacia,> 8 µg/mL
same,MIC50,Acinetobacter baumannii [12],0.25 µg/mL
same,MIC90,Acinetobacter baumannii [12],> 8 µg/mL
same,MIC50,Acinetobacter baumannii [13],0.5 µg/mL
same,MIC90,Acinetobacter baumannii [13],2 µg/mL
same,MIC50,Klebsiella pneumoniae [14],1 µg/mL
same,MIC90,Klebsiella pneumoniae [14],> 8 µg/mL
same,MIC50,Klebsiella pneumoniae [15],0.03 µg/mL
same,MIC90,Klebsiella pneumoniae [15],> 2 µg/mL
CN[C@H](CC(C)C)C(=O)N[C@H]1C(=O)N[C@@H](CC(N)=O)C(=O)N[C@H]2C(=O)N[C@H]3C(=O)N[C@H](C(=O)N[C@H](C(=O)O)c4cc(O)cc(O)c4-c4cc3ccc4O)[C@H](O)c3ccc(c(Cl)c3)Oc3cc2cc(c3O[C@@H]2O[C@H](CO)[C@@H](O)[C@H](O)[C@H]2O[C@H]2C[C@](C)(N)[C@H](O)[C@H](C)O2)Oc2ccc(cc2Cl)[C@H]1O [VANCOMYCIN],MIC50,[1],2 µg/mL
same,MIC90,[1],2 µg/mL
same,MIC50,Staphylococcus aureus [2],0.5 µg/mL
same,MIC90,Staphylococcus aureus [2],1 µg/mL
same,MIC50,Streptococcus pneumoniae [3],0.25 µg/mL
same,MIC90,Streptococcus pneumoniae [3],0.25 µg/mL
same,MIC50,Streptococcus agalactiae,1 µg/mL
same,MIC90,Streptococcus agalactiae,1 µg/mL
same,MIC90,[4],2 µg/mL
same,MIC,Streptococcus pneumoniae [5],0.25 µg/mL
same,MIC50,Streptococcus pneumoniae [5],0.25 µg/mL
same,MIC90,Streptococcus pneumoniae [5],0.25 µg/mL
same,MIC50,Enterococcus faecium [6],0.5 µg/mL
same,MIC90,Enterococcus faecium [6],1 µg/mL
same,MIC,Enterococcus faecalis [7],> 64 µg/mL
same,MIC50,Enterococcus faecalis [7],> 64 µg/mL
same,MIC90,Enterococcus faecalis [7],> 64 µg/mL
same,MIC50,Staphylococcus aureus [8],0.5 µg/mL
same,MIC90,Staphylococcus aureus [8],1 µg/mL
same,MIC50,Enterococcus faecium [9],> 64 µg/mL
same,MIC90,Enterococcus faecium [9],> 64 µg/mL
same,MIC50,Enterococcus faecalis [10],1 µg/mL
same,MIC90,Enterococcus faecalis [10],2 µg/mL
same,MIC,Streptococcus pneumoniae [11],0.25 µg/mL
same,MIC50,Streptococcus pneumoniae [11],0.25 µg/mL
same,MIC90,Streptococcus pneumoniae [11],0.25 µg/mL
GENTAMICIN,MIC50,Proteus mirabilis,1 µg/mL
same,MIC90,Proteus mirabilis,8 µg/mL
same,MIC50,Escherichia coli,1 µg/mL
same,MIC90,Escherichia coli,1 µg/mL
same,MIC50,Serratia marcescens,4 µg/mL
same,MIC90,Serratia marcescens,4 µg/mL
same,MIC50,Pseudomonas aeruginosa,2 µg/mL
same,MIC90,Pseudomonas aeruginosa,> 32 µg/mL
same,MIC50,Burkholderia cepacia,0.5 µg/mL
same,MIC90,Burkholderia cepacia,> 8 µg/mL
same,MIC50,Acinetobacter baumannii [12],0.06 µg/mL
same,MIC90,Acinetobacter baumannii [12],> 8 µg/mL
same,MIC50,Acinetobacter baumannii [13],0.5 µg/mL
same,MIC90,Acinetobacter baumannii [13],4 µg/mL
same,MIC50,Klebsiella pneumoniae [14],0.5 µg/mL
same,MIC90,Klebsiella pneumoniae [14],2 µg/mL
same,MIC50,Klebsiella pneumoniae [15],0.25 µg/mL
same,MIC90,Klebsiella pneumoniae [15],1 µg/mL
